Source: patent publication US7807678B2, “Peptidomimetics of biologically active metallopeptides” (Palatin Technologies, Inc., priority 2001, dated 2010)

What was measured:
Details in all cases: 1 μM compound; inhibition of 125I-NDP-α-MSH binding; mean of triplicates; results less than 0% reported as 0%
[1] = biological target: T1, MC1-R (B-16 mouse melanoma cells) (Mus musculus, UniProt Q01727); test: Competitive inhibition binding assay, 125I-NDP-α-MSH, MC1-R
T1 construct: B-16 mouse melanoma cells (containing MC1-R); endogenous in cells; host or cells: B-16 mouse melanoma cells
T1 sequence (Q01727 whole entry): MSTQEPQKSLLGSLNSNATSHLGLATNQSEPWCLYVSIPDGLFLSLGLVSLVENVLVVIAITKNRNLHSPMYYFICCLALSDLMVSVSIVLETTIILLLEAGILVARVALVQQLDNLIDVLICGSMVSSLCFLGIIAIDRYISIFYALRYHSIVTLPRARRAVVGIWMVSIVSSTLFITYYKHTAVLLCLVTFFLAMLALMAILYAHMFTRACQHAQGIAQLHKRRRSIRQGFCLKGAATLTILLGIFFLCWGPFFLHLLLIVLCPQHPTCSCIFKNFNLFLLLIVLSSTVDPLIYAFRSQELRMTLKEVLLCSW
Protocol: (§1) The competitive inhibition binding assay was conducted using membranes prepared from hMC3-R, hMC4-R, hMC5-R, and B-16 mouse melanoma cells (containing MC1-R) using 0.4 nM ^125I-NDP-α-MSH (New England Nuclear, Boston, Mass., USA) in 50 mM HEPES buffer containing 1 mM MgCl2, 2 mM CaCl2, and 5 mM KCl, at pH 7.2. The assay tube also contained a chosen concentration of the test peptidomimetic of this invention, generally 1 μM, for determining its efficacy in inhibiting the binding of ^125I-NDP-α-MSH to its receptor.
(§2) Incubation was for 90 minutes at room temperature, after which the assay mixture was filtered and the membranes washed three times with ice cold buffer. The filter was dried and counted in a gamma counter for remaining radioactivity bound to the membranes. 100% specific binding was defined as the difference in radioactivity (cpm) bound to cell membranes in the absence and presence of 1 μM α-MSH. […] Each assay was conducted in triplicate and the actual mean values are described.

MC3-R = MC3-R (Homo sapiens, UniProt P41968); test: Competitive inhibition binding assay, 125I-NDP-α-MSH, MC3-R; design: expressed in transfected cells
MC3-R, sequence (P41968 whole entry): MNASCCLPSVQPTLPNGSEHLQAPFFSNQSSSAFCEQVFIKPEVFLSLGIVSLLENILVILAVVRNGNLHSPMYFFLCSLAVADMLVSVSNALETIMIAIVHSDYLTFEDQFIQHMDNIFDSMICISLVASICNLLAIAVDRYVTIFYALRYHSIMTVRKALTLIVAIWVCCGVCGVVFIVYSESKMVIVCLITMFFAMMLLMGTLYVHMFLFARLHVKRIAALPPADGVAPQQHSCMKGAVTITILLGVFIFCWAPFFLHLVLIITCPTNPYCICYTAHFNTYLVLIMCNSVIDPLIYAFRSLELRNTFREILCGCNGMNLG
Protocol: as §1, §2

MC4-R = MC4-R (Homo sapiens, UniProt P32245); test: Competitive inhibition binding assay, 125I-NDP-α-MSH, MC4-R; design: expressed in transfected cells
MC4-R, sequence (P32245 whole entry): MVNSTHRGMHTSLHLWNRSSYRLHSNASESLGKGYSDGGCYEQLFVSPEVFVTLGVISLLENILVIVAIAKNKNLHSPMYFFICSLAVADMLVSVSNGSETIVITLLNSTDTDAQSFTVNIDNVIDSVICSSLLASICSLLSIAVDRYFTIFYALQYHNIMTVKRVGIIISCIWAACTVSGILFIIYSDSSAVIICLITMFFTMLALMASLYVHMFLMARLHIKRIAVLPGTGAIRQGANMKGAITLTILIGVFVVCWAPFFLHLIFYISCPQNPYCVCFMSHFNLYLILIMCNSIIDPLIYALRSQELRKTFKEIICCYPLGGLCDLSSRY
Protocol: as §1, §2

MC5-R = MC5-R (Homo sapiens, UniProt P33032); test: Competitive inhibition binding assay, 125I-NDP-α-MSH, MC5-R; design: expressed in transfected cells
MC5-R, sequence (P33032 whole entry): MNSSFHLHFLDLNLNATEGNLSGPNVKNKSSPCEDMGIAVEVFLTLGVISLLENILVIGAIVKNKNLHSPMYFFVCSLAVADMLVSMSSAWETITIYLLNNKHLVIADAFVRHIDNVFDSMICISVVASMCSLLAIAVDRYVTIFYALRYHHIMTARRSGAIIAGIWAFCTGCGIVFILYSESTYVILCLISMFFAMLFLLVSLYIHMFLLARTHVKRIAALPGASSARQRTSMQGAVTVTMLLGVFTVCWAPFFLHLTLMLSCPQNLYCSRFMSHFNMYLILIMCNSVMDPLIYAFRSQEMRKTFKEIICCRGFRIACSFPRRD
Protocol: as §1, §2

Row | Compound | Inhibition at 1 μM MC1-R [1] | Inhibition at 1 μM MC3-R (MC3-R) | Inhibition at 1 μM MC4-R (MC4-R) | Inhibition at 1 μM MC5-R (MC5-R)
1 | [2H]NC(Cc1cnc[nH]1)C(=O)NC(Cc1ccccc1)C(=O)N1C(CCCNC(=N)N)C(=O)N2C(COc3ccc4ccccc4c3)CCC21 (stereo not shown) [Example 97] | 99% | 30% | 69% | 28%
2 | NCCCNC(=O)[C@@H]1C[C@@H](OCc2ccccc2)CN1C(=O)[C@@H](Cc1ccccc1)NC(=O)C1CCC(CN)CC1 (stereo partly shown) [Example 168] | 18% | 0% | 10% | 0%
3 | CCCC(CCC)C(=O)N[C@@H](Cc1cnc[nH]1)C(=O)N[C@H](Cc1ccccc1)C(=O)N1C[C@H](OCc2ccccc2)C[C@H]1C(=O)NCCCN [Example 143] | 73% | 0% | 0% | 7%
4 | N[C@H](Cc1ccc(Cl)cc1Cl)C(=O)N1CCN(CCc2ccc3ccccc3c2)C(=O)[C@@H]1CCNC1=NCCN1 [Example 55] | 24% | 14% | 68% | 27%
5 | NCCCNC(=O)[C@@H]1C[C@@H](OCc2ccccc2)CN1C(=O)[C@@H](Cc1ccccc1)NC(=O)[C@@H](N)C1Cc2ccccc2C1 [Example 174] | 10% | 21% | 15% | 2%
6 | CCCCCCC(=O)N[C@@H](COCc1ccccc1)C(=O)N[C@H](Cc1ccc2ccccc2c1)C(=O)N1C[C@@H](Oc2ccc3ccccc3c2)C[C@H]1C(=O)NCCCN [Example 138] | 39% | 0% | 0% | 0%
7 | N[C@H](Cc1ccc(Cl)cc1Cl)C(=O)N1CCN(CCc2ccc3ccccc3c2)C(=O)[C@@H]1CCCCNC(=O)CC1CCCCC1 [Example 62] | 0% | 4% | 6% | 2%
8 | N=C(N)NCCCC[C@H]1C(=O)N(CCc2ccc3ccccc3c2)CCN1C(=O)[C@H](N)Cc1ccc(Cl)cc1Cl [Example 67] | 66% | 68% | 96% | 42%
9 | NCCCNC(=O)[C@@H]1C[C@@H](OCc2ccccc2)CN1C(=O)[C@@H](Cc1ccccc1)NC(=O)C1(N)CCCCC1 [Example 162] | 0% | 41% | 8% | 0%
10 | NCCCNC(=O)[C@@H]1C[C@@H](OCc2ccccc2)CN1C(=O)[C@@H](Cc1ccccc1)NC(=O)C1(N)Cc2ccccc2C1 [Example 163] | 0% | 16% | 15% | 0%
11 | CC(O)C(N)C(=O)NC(Cc1ccccc1)C(=O)N1CC(OCc2ccccc2)CC1C(=O)NCCCN (stereo not shown) [Example 176] | 18% | 0% | 8% | 8%
12 | NCCC[C@H]1C(=O)N(CCc2ccc3ccccc3c2)CCN1C(=O)[C@H](N)Cc1ccc(Cl)cc1Cl [Example 49] | 2% | 0% | 43% | 1%
13 | CCCCCCC(=O)N[C@@H](COCc1ccccc1)C(=O)N[C@H](Cc1ccc(Cl)cc1)C(=O)N1CCN(CCc2c[nH]c3ccccc23)C(=O)[C@@H]1CCCCN [Example 78] | 96% | 72% | 99% | 99%
14 | CC(=O)NC(Cc1cnc[nH]1)C(=O)NC(Cc1ccccc1)C(=O)N1CC(OCc2ccccc2)CC1C(=O)NCCCN (stereo not shown) [Example 139] | 85% | 46% | 43% | 34%
15 | NCCCNC(=O)[C@@H]1C[C@@H](OCc2ccccc2)CN1C(=O)[C@@H](Cc1ccccc1)NC(=O)[C@H](N)C1Cc2ccccc2C1 [Example 175] | 3% | 0% | 19% | 0%
16 | N[C@H](Cc1ccc(Cl)cc1Cl)C(=O)N1CCN(CCc2ccc3ccccc3c2)C(=O)[C@@H]1CCCNc1ncccn1 [Example 68] | 3% | 9% | 12% | 19%

Row | Compound | Inhibition at 1 μM MC1-R [1] | Inhibition at 1 μM MC3-R (MC3-R) | Inhibition at 1 μM MC4-R (MC4-R) | Inhibition at 1 μM MC5-R (MC5-R)
17 | N=C(N)NCCC[C@H]1C(=O)N(CCc2c[nH]c3ccccc23)CCN1C(=O)[C@H](N)Cc1ccc(Cl)cc1Cl [Example 124] | 7% | 57% | 96% | 35%
18 | N=C(N)NCCC[C@H]1C(=O)N(CCc2c[nH]c3ccccc23)CCN1C(=O)[C@@H](Cc1ccc(Cl)cc1)NC(=O)[C@@H](N)COCc1ccccc1 [Example 16] | 86% | 55% | 96% | 81%
19 | NCCCC[C@H]1C(=O)N2C(CC[C@@H]2COc2ccc3ccccc3c2)N1C(=O)[C@@H](Cc1ccccc1Cl)NC(=O)C1(N)CCc2ccccc2C1 (stereo partly shown) [Example 89] | 24% | 0% | 34% | 22%
20 | N=C(N)NCCC[C@H]1C(=O)N(CCc2c[nH]c3ccccc23)CCN1C(=O)[C@@H](Cc1ccccc1Cl)NC(=O)[C@@H]1Cc2ccccc2CN1 [Example 18] | 95% | 50% | 99% | 62%
21 | CS(=O)(=O)NCCC[C@H]1C(=O)N(CCc2ccc3ccccc3c2)CCN1C(=O)[C@@H](Cc1ccc(Cl)cc1Cl)NC(=O)[C@@H](N)COCc1ccccc1 [Example 47] | 0% | 9% | 40% | 14%
22 | NCCCNC(=O)[C@@H]1C[C@@H](OCc2ccccc2)CN1C(=O)[C@@H](Cc1ccccc1)NC(=O)[C@H](Cc1cnc[nH]1)NC(=O)c1ccccc1 [Example 140] | 78% | 3% | 1% | 10%
23 | NCCCC[C@H]1C(=O)N2C(CC[C@@H]2COc2ccccc2)N1C(=O)[C@@H](Cc1ccc(Cl)cc1)NC(=O)[C@@H]1Cc2ccccc2CN1 (stereo partly shown) [Example 106] | 81% | 19% | 51% | 25%
24 | NCCCC[C@H]1C(=O)N2C(CC[C@@H]2COc2ccc3ccccc3c2)N1C(=O)[C@@H](Cc1ccccc1Cl)NC(=O)C1(N)CCc2ccccc21 (stereo partly shown) [Example 96] | 39% | 0% | 12% | 17%
25 | NCCCNC(=O)[C@@H]1C[C@@H](OCc2ccccc2)CN1C(=O)[C@@H](Cc1ccccc1)NC(=O)[C@@H](N)Cc1ccc(-c2ccccc2)cc1 [Example 171] | 11% | 0% | 9% | 25%
26 | NCCCNC(=O)[C@@H]1C[C@@H](OCc2ccccc2)CN1C(=O)[C@@H](Cc1ccccc1)NC(=O)[C@H](N)Cc1ccc2ccccc2c1 [Example 158] | 0% | 5% | 0% | 0%
27 | NCCCCC1C(=O)N2C(COc3ccccc3)CCC2N1C(=O)C(N)Cc1ccccc1Cl (stereo not shown) [Example 104] | 0% | 4% | 0% | 0%
28 | NCCCC[C@H]1C(=O)N2C(CC[C@@H]2COc2ccc3ccccc3c2)N1C(=O)[C@@H](Cc1ccccc1Cl)NC(=O)[C@H]1Cc2ccccc2CN1 (stereo partly shown) [Example 93] | 47% | 12% | 79% | 18%
29 | CNC(=O)NCCC[C@H]1C(=O)N(CCc2ccc3ccccc3c2)CCN1C(=O)[C@@H](Cc1ccc(Cl)cc1Cl)NC(=O)[C@@H](N)COCc1ccccc1 [Example 45] | 5% | 11% | 72% | 31%
30 | NCCCNC(=O)[C@@H]1C[C@@H](OCc2ccccc2)CN1C(=O)[C@@H](Cc1ccccc1)NC(=O)c1ccc(CN)cc1 [Example 169] | 12% | 0% | 6% | 0%
31 | NCCCC[C@H]1C(=O)N2C(CC[C@@H]2COc2ccc3ccccc3c2)N1C(=O)[C@@H](Cc1ccccc1Cl)NC(=O)[C@@H]1NCCc2ccccc21 (stereo partly shown) [Example 88] | 48% | 0% | 37% | 20%
